Data on 75 compounds can be found in PubChem BioAssay AID179 (DTP/NCI, 2004).

In general, pEC50 refers to the EC50 on a negative log10 scale, so that one unit is a factor of ten. The pIC50 is the IC50 on a negative log10 scale, so that one unit is a factor of ten.

The assay has as its system CEM cells HIV-1 protection, formazan growth assay. Kind of assay: NCI AIDS Antiviral Assay. To be noted: for pIC50: measured here: growth of uninfected CEM cells. The procedure, abridged:
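Protection of CEM cells against HIV-1 measured as cell growth via soluble formazan read-out, with five concentrations tested on both infected and uninfected cells; failure to protect may reflect toxicity.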

SMILES strings stand for the structures. pEC50, pIC50: −log10 of the molar value. Active and inactive are the calls of the source.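 The calls were made as follows: active = compounds giving half or more protection of infected cells from virus-caused growth loss, again on retest; inactive = the rest.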 Some results are limits rather than exact numbers.

For the compound `C/C(=N\NC(=S)N1CCC1)c1ccccn1`, the pEC50 was < 6.70 and the pIC50 is 8.28. For the compound `OC1CN=C2C=CC=CN2C1` (stereo not given), the pEC50 is < 3.70 and the negative logarithm of the IC50 (pIC50) is < 3.70. Turning to `C=CCOP1(OCC=C)=NP(OCC=C)(OCC=C)=NP(OCC=C)(OCC=C)=N1`, the pEC50 was < 3.70 and the pIC50 was 5.07.

Regarding `COC(=O)C(/C(=N\O)C(=O)Nc1ccc(Br)cc1)c1nc2ccccc2[nH]c1=O` (stereo not given), the pEC50 is < 3.85 and the pIC50 is < 3.85.

On to `COC(=O)C1Cc2ccc(O)c(O)c2CN1` (stereo not given), for which the pEC50 was < 4.47 and the pIC50 was 5.05.

As to `CC(=O)N(O)c1ccccc1-c1ccccc1`, the pEC50 is < 3.70 and the pIC50 was 3.99. With `COc1ccc(OC)c2c(=O)c3ccccc3[nH]c12`, the result was inactive. Consider `COc1cc(NS(C)(=O)=O)ccc1Nc1c2ccccc2nc2ccccc12`, for which the outcome was inactive. As for `NC1=Nc2cc(C(F)(F)F)ccc2Sc2nc3ccccc3n21`, the pEC50 is < 3.70. Consider `O=C(OCc1ccccc1)N1CC(O)C2OC3OC4(CCCCC4)OC3C21` (stereo not given), for which the pEC50 is < 3.70 and the negative logarithm of the IC50 (pIC50) was 3.77. In the case of `CC(C)CC1CC2C(=O)N(c3ccccc3)C(=O)C2c2[nH]c3ccccc3c21` (stereo not given), the outcome was inactive. In the case of `NC(N)=NCCN1CC2CCC(CC2)C1`, the negative logarithm of the EC50 (pEC50) is 4.21 and the pIC50 is 3.82. In the case of `O=C(Nc1cccc([N+](=O)[O-])c1)C(=O)C(C(=O)c1ccccc1F)C1OC(=O)C2C=CC=CC21` (stereo not given), the pEC50 is < 3.55 and the negative logarithm of the IC50 (pIC50) was 5.39. With `COc1ccc(N(C)S(=O)(=O)c2ccccc2)cc1`, the pEC50 is < 3.70 and the pIC50 is 3.91. The like results for `COc1ccccc1[B-]12OCC[N+]1(CNC(=O)C1=C(O)C3(O)C(=O)C4=C(O)c5c(O)cccc5C(C)(O)C4CC3C(N(C)C)C1=O)CCO2` (stereo not given) were, in that order, < 4.56 and < 4.56.

Regarding `CCOc1ccc2nc(NC(=O)C(=O)C3C(=O)C(CC4C(=O)c5ccccc5C4=O)C(=O)CC3(C)C)sc2c1` (stereo not given), the pEC50 was < 5.16 and the pIC50 was < 5.16. `C=CC(CCC(C)OC(CCC)OCC)[Si](C)(C)C` (stereo not given): the pEC50 was < 4.04 and the pIC50 is < 4.04. `CSc1nc(NC(=O)O)c(N(C(C)=O)C(=O)O)c(=O)n1C`: the pEC50 was < 3.10 and the pIC50 is < 3.10. In the case of `CSCCCS/C1=C/CCCCCCCCCC1`, the pEC50 is < 3.70 and the pIC50 was < 3.70. Consider `O=c1ccn([C@@H]2C[C@H]2CO)c(=O)[nH]1`, for which the outcome was inactive.

With `C1CCC(N2CSCSC2)CC1`, the pEC50 is < 3.70 and the pIC50 is 3.97. In the case of `O=C(/C=C/c1ccc(Cl)cc1)c1ccc(Cl)c(Cl)c1`, the pEC50 is < 4.49 and the pIC50 was < 4.49. On to `[Cl][Sn]([c]1ccccc1)([c]1ccccc1)[c]1ccccc1`, for which the outcome was inactive. With `COc1cc2ccc(=O)oc2c2c1OC(C)(C)[C@H](OC(=O)C13CCC(C)(C(=O)O1)C3(C)C)[C@@H]2OC(=O)C12CCC(C)(C(=O)O1)C2(C)C` (stereo not given in full), the pEC50 is < 3.70 and the pIC50 is < 3.70.

For `CN(C)C(=S)N1C(=S)N(c2ccccc2)C(=Nc2ccccc2)C1=Nc1ccccc1`, the pEC50 was < 3.70 and the pIC50 is 3.77. `O=c1[nH]ncc(N/N=C(/C=C/c2ccc(C/C(=N/Nc3cn[nH]c(=O)c3Cl)c3ccccc3)cc2)c2ccccc2)c1Cl`: the result was inactive. Consider `COc1ccc(NC(=O)C2=C(SC)C(C#N)C(=O)N=C2N)cc1` (stereo not given), for which the pEC50 was < 3.70 and the pIC50 was 4.35. For `O=C1c2c(F)c(F)c(F)c(F)c2SC2=Nc3cccc4cccc(c34)N12`, the pEC50 was < 3.70 and the negative-log IC50 (pIC50) is 6.00.

Take `c1ccc2c(c1)CN1CCCC1CN2` (stereo not given): the pEC50 is < 3.70 and the pIC50 is < 3.70. Regarding `O=C(c1ccccc1)c1cccc(C(=O)c2ccccc2)c1`, the pEC50 is < 4.60 and the pIC50 is < 4.60. Turning to `COc1ccc(N2C(=O)c3cc([N+](=O)[O-])cnc3S2(=O)=O)cc1`, the pEC50 was < 3.70 and the negative-log IC50 (pIC50) was 4.55.

For `CCCCC(CC)COS(=O)(=O)O` (stereo not given), the pEC50 was 3.84 and the pIC50 was < 3.70. Taken in the same sequence, the figures for `CN(C)c1ccc(N=O)c(O)c1` were < 3.70 and 5.06. The like results for `CCCC1=C(CC)C(C(=O)Nc2c(C)cccc2C)=NC(S)N1` (stereo not given) were, in that order, < 3.97 and < 3.97.

In the case of `O=CC[C@H]1C(=O)C[C@@H]2CCC[C@@H]21`, the pEC50 is < 3.10 and the pIC50 is 4.35. Regarding `O=C1N=NC(=O)N1c1ccccc1`, the pEC50 was < 3.70 and the pIC50 was < 3.70. As to `O=[N+]([O-])C1=C(c2ccccc2)SC(Br)=C(c2ccccc2)S1`, the pEC50 is < 4.00 and the pIC50 was 6.09. On to `NC(N)=N/N=C(/c1nc2ccc([N+](=O)[O-])cc2[nH]c1=O)C(O)c1ccco1` (stereo not given), for which the pEC50 is < 3.60 and the pIC50 is 3.85.

With `COc1ccc(/C=C/C(=O)Oc2ccc(/C=C3\CCCCC3=O)cc2)cc1`, the pEC50 was < 3.70 and the pIC50 is 5.98. Take `OC(Cn1cncn1)(Cn1cncn1)c1ccc(Cl)cc1Cl`: the pEC50 is < 3.13 and the pIC50 is 3.31. As for `C1CCC(CC2CCC(NC3=NCCO3)CC2)CC1` (stereo not given), the pEC50 was < 3.70 and the pIC50 is 4.50. The like results for `Cc1c(O)c(O)c(C)c(CCN)c1O` were, in that order, < 3.70 and 4.96. Take `O=c1[nH]c(=O)n(C2OC(CO)C(O)C2O)c2ncncc12` (stereo not given): the pEC50 was < 3.70 and the pIC50 is < 3.70. Consider `O=C1CC(c2ccco2)C2(C(=O)CCCC2=O)C(c2ccco2)C1` (stereo not given), for which the pEC50 is < 4.00 and the pIC50 was < 4.00. As to `COc1ccc(-c2cn3c(nc4ccccc43)c(C)n2)cc1`, the pEC50 is < 3.70 and the pIC50 is < 3.70.

With `COC(=O)C(CCSC)NC(=O)Cc1ccc(C(=O)c2ccccc2)cc1` (stereo not given), the pEC50 is < 3.70 and the pIC50 was 4.46. On to `Cn1c(COc2ccc(/C=N\NC(=O)c3ccc(C(=O)N/N=C/c4ccc(OCc5c[n+]6ccccc6n5C)cc4)cc3)cc2)c[n+]2ccccc12`, for which the pEC50 is 5.34 and the pIC50 is 5.02.

`CCCCNC(=O)C1C(=O)N(CCCC)C(=O)/C1=N\N` (stereo not given): the pEC50 was < 4.59 and the pIC50 is < 4.59. Take `N#CC(C#N)=C1/C(=C/C=C/C=C/C=C/c2ccc(N3CCCCC3)s2)S(=O)(=O)c2ccccc21`: the pEC50 is < 3.70 and the pIC50 is 4.03.

With `CC1(C)CC(/C=C\c2coc3ccc(Cl)cc3c2=O)=C(C#N)C(=O)O1`, the pEC50 was < 5.12 and the pIC50 is < 5.12. Take `COc1cc(OC)cc(C2(C#N)CCN(C)CC2)c1`: the pEC50 is < 3.72 and the pIC50 was < 3.72. In the case of `COc1ccc(Cl)cc1C(=O)c1cc(Cl)cc(S(=O)(=O)O)c1OC`, the pEC50 was < 3.21 and the pIC50 was 3.37. As for `CC12c3c4cc(Br)cc3Oc3cc(Br)cc(c31)Oc1cc(Br)cc(c12)O4`, the pEC50 was < 3.70 and the pIC50 is 4.48. As to `Cc1cc(S(=O)(=O)Nc2nc3ncccc3[nH]2)c(S)cc1Cl`, the pEC50 was 4.48 and the pIC50 was < 3.70. `CC1(C)CC2(CC(C)(C)c3cc(O)c(O)cc32)c2cc(O)c(O)cc21`: the pEC50 is < 3.56 and the pIC50 was 4.85. As to `COC(=O)[C@@H](Cc1ccccc1)NNC(=O)OC(C)(C)C`, the pEC50 was < 3.07 and the pIC50 is 3.36.

With `O=c1c2cc3c(=O)n(-c4ccccc4Cl)c(=O)c3cc2c(=O)n1-c1ccccc1Cl`, the pEC50 was < 4.39 and the pIC50 was < 4.39.

As to `CN(C)c1ccc(N=C2C=CC(=O)c3ccccc32)cc1`, the pEC50 was < 4.70 and the pIC50 is 5.91. On to `Nc1scc2[nH]c3ccccc3[n+]12`, for which the pEC50 was < 3.70 and the negative-log IC50 (pIC50) was 4.81. Turning to `CC1CC(O)c2ccccc2O1` (stereo not given), the pEC50 is < 3.70 and the pIC50 is < 3.70. As for `CCN(CC)/C(=C\Cl)Nc1ccccn1`, the pEC50 was < 3.12 and the pIC50 was 3.93. Taken in the same sequence, the figures for `CN1C/C(=C\c2ccc(N(C)C)cc2)C(=O)/C(=C/c2ccc(N(C)C)cc2)C1` were < 4.00 and < 4.00. As for `OCC1CC2C=CCC(C2)C1` (stereo not given), the result was inactive. In the case of `CS(=O)(=O)SCc1ccc([N+](=O)[O-])cc1`, the pEC50 was < 3.84 and the pIC50 is 4.69.

Take `O=C(O)C(CS(=O)(=O)O)S(=O)(=O)O` (stereo not given): the result was inactive. For the compound `Cc1c2ccccc2nc(CN2CCOCC2)[n+]1[O-]`, the pEC50 was < 3.70 and the negative-log IC50 (pIC50) was < 3.70. Take `O=c1oc2c(-c3c(O)c(=O)oc4ccccc34)cc(O)cc2s1`: the pEC50 was < 3.68 and the negative logarithm of the IC50 (pIC50) was 4.01.

As for `CCC(C)c1c(NC(=O)c2ccccc2)o[nH]c1=O` (stereo not given), the pEC50 is < 3.70 and the pIC50 was < 3.70. Regarding `CCN(CC)CC(C(C)=O)C(c1ccccc1)c1c(O)c2ccccc2oc1=O` (stereo not given), the pEC50 is < 4.36 and the pIC50 was < 4.36. As for `Cc1cccc(C2ON=C(c3ccccc3)N2C23CC4CC(CC(C4)C2)C3)c1` (stereo not given), the pEC50 is < 3.70 and the pIC50 is 4.31.

As to `CC(C)CC(NC(=O)C(Cc1ccccc1)NC(=O)CNC(=O)CNC(=O)C(N)Cc1ccc(O)cc1)C(=O)NC1C(O)OC(CO)C(O)C1O` (stereo not given), the pEC50 is < 2.66 and the pIC50 was < 2.66. For `NC(=O)C1CC2(C1)CC(C(N)=O)C2` (stereo not given), the pEC50 was < 3.61 and the pIC50 was < 3.61. Turning to `CCOC(=O)C(=O)/C=C(\C)Nc1c(NC2OCC(OC(C)=O)C(OC(C)=O)C2OC(C)=O)nc(SC)[nH]c1=O` (stereo not given), the pEC50 is < 4.06 and the pIC50 was < 4.06. As to `COc1cc2c(c(OC)c1OC)-c1ccc(OC)c(=O)cc1[C@@H](NC(C)=O)CC2`, the result was inactive. With `CN1CSC(=S)N(C)C1`, the pEC50 is < 3.70 and the pIC50 was 4.88.
